Assay results as given in patent publication US20240207264A1, “PHARMACEUTICAL COMPOSITIONS COMPRISING INHIBITORS OF THE ANDROGEN RECEPTOR AND USES THEREOF” (ESSA PHARMA INC., priority 2021, published 2024).
Entries after “also recorded” stand apart in the source; their conditions may differ.

Columns and labels:
[1] = PK study, single PO dose, dogs; assay type: in vivo; conditions: male, Beagle, dog, plasma; for half-life: read-out: T½ (converted)
Method: A single PO dose of Compound A in two different formulations were administered to male Beagle dogs. Mean plasma of Compound A was measured over 24-hour period after administration of Compound A (FIG. 15B) and PK parameters were determined (Table 30).

HID28 = test: Enzalutamide resistant patient-derived xenograft (PDX) model HID28; assay type: in vivo, nude mice; conditions: HID28 PDX (AR+ PSA+), castrated male mice, 60 mg/kg, SDD, qd28
Method: (§1) Compound A's activity was measured in a variety of castrate-sensitive and castrate-resistant prostate cancer (CRPC) xenograft models (Table 32).
For example, intact male nude mice were engrafted with HID28 tumor fragments and once tumors reached ˜150 mm^3 the mice were castrated. The mice were enrolled in the experiment once the tumors started to regrow, 10 days post-castration. Compound A was tested in the HID28 PDX model at 60 mg/kg, QD for 28 days using SDD formulation with HPMCAS-H in 0.5% Methocel A4M in water.
Mean tumor volume in castrated nude mice bearing enzalutamide resistant patient-derived xenograft (PDX) model HID28 was measured after oral treatment with solid dispersion composition of Compound A or enzalutamide for 28 days (n=6-7 per group) is shown in FIG. 16B.

[2] = Phase I clinical study, safety (DLT); assay type: in vivo, human
Method: (§2) Phase I clinical research study of Compound A is studied as a treatment for patients with prostate cancer. All patients in the study receives Compound A at a once daily oral dose of 200 mg, 400 mg, 600 mg, 800 mg, or 1000 mg. Compound A in this study is provided as an SDD composition with HPMCAS-H. One cycle of treatment is 28 days of dosing.
The primary safety variable for Part 1a of the study is the incidence of protocol-defined dose limiting toxicity (DLT) during the DLT assessment period (first 28 days of dosing). The DLTs will be characterized by type, frequency, severity (as graded by National Cancer Institute Common Terminology Criteria for AEs [NCI CTCAE version 5.0]), timing, seriousness, and relationship to study drug.

LNCaP95 = LNCaP95 prostate cancer xenograft model; assay type: in vivo; conditions: LNCaP95 (high level AR-V7), castrated male mice, 30 mg/kg, Solution, qd24
Method: as §1

[3] = PK study, single PO dose, rats; assay type: in vivo; conditions: Sprague-Dawley, rat, plasma, male SD rats; for half-life: read-out: T½ (converted)
Method: A single PO dose of Compound A in three different formulations were administered to male Sprague-Dawley (SD) rats. Animals in Group 1 (Solution) received Compound A by oral gavage (PO) administration at 30 mg/kg, which was formulated in 4% NMP, 20% Capmul MCM, 21% Vitamin E TPGS, 55% PEG400. Animals in Group 2 (Suspension A) received Compound A by oral gavage (PO) administration at 100 mg/kg, which was formulated in SDD formulation with HPMCAS-H in 0.5% Methocel A4M in water. Mean plasma of Compound A was measured over 24-hour period after administration of Compound A (FIG. 15A) and PK parameters were determined (Table 29).

[4] = Phase I clinical study, PK; assay type: in vivo, human; conditions: patients; for Cmax / Tmax / AUC(0-t) / half-life: po, 200 mg/day; for AUC(0-t): read-out: AUC0-24; for half-life: read-out: t½ (converted)
Method: as §2
PK parameters were measured from 4 subjects who were administered at 200 mg/day dose (Table 33). One patient discontinued before day 28 due to disease progression. 2 subjects received both abiraterone and enzalutamide prior treatments. 3 subjects received prior chemotherapy with taxanes.

LNCaP = LNCaP prostate cancer xenograft model; assay type: in vivo; conditions: LNCaP (AR FL), castrated male mice, 60 mg/kg, Solution, qd24
Method: as §1

PC-3 = PC-3 prostate cancer xenograft model; assay type: in vivo; conditions: PC-3 (non functional AR), intact male mice, 30 mg/kg, Solution, qd28
Method: as §1

[5] = system: serum prostate specific antigen (PSA); test: Phase I clinical study, serum PSA; assay type: in vivo, human; conditions: 200 mg/day
Method: as §2
The primary efficacy variable for Part 1b of the study is the proportion of patients with a decline from baseline in prostate specific antigen (PSA) blood concentrations of ≥50% at any time point during daily dosing with Compound A,
The study is still on-going with other dose levels.

22Rv1 = 22Rv1 prostate cancer xenograft model; assay type: in vivo; conditions: 22Rv1 (high level AR-V7), castrated male mice, 30 mg/kg, Solution, qd28
Method: as §1

[6] = 50 mg/kg, PO 50 mg/kg, Solution (5% NMP, 20% vitamin E TPGS, 20% PEG 300, 0.5% SLS, 1.09% HPMCAS-H, 53.91% water)
[7] = 50 mg/kg, PO 50 mg/kg, Suspension A (SDD)
[8] = 100 mg/kg, PO 100 mg/kg, Suspension A (SDD)
[9] = 3 subjects, 28 day dosing at 200 mg/day
[10] = PO 30 mg/kg, Solution (4% NMP, 20% Capmul MCM, 21% Vitamin E TPGS, 55% PEG400)
[11] = PO 100 mg/kg, Suspension A (SDD with HPMCAS-H in 0.5% Methocel A4M in water)
[12] = male, human, in vivo, 200 mg/day oral SDD with HPMCAS-H, Day 1, N 4
[13] = male, human, in vivo, 200 mg/day oral SDD with HPMCAS-H, Day 28, N 3

CC(C)(c1ccc(OCc2ccnc(NS(C)(=O)=O)n2)cc1)c1cc(Cl)c(OCCCl)c(C#N)c1 [Compound A, N-(4-((4-(2-(3-chloro-4-(2-chloroethoxy)-5-cyanophenyl)propan-2-yl)phenoxy)methyl)pyrimidin-2-yl)methanesulfonamide]
AUC(0-t) [1, 6]: 648 µg·h/mL
Cmax [1, 6]: 45800 ng/mL
Tmax [1, 6]: 2 h
half-life [1, 6]: 21.9 h
AUC(0-t) [1, 7]: 845 µg·h/mL
Cmax [1, 7]: 55500 ng/mL
Tmax [1, 7]: 3.3 h
half-life [1, 7]: 16.2 h
AUC(0-t) [1, 8]: 1450 µg·h/mL
Cmax [1, 8]: 80600 ng/mL
Tmax [1, 8]: 5.3 h
half-life [1, 8]: 24 h
TGI (Tumor Growth Inhibition) (HID28): 58%
tolerability ([2]; 200 mg/day): well tolerated
dose limiting toxicity (DLT) [2, 9]: No DLTs were observed; also recorded: No dose limiting toxicity was observed
severe adverse events [2, 9]: no severe adverse events were observed
TGI (Tumor Growth Inhibition) (LNCaP95): 54%
AUC(0-t) [3, 10]: 399 µg·h/mL
Cmax [3, 10]: 26800 ng/mL
Tmax [3, 10]: 9.3 h
half-life [3, 10]: 7.6 h
AUC(0-t) [3, 11]: 1180 µg·h/mL
Cmax [3, 11]: 89800 ng/mL
Tmax [3, 11]: 5.3 h
half-life [3, 11]: 6.2 h
Cmax [4, 12]: 3300 ng/mL
Tmax [4, 12]: 6.5 h
AUC(0-t) [4, 12]: 53.9 µg·h/mL
half-life [4, 12]: 22 h
Cmax [4, 13]: 8020 ng/mL
Tmax [4, 13]: 6.7 h
AUC(0-t) [4, 13]: 147 µg·h/mL
half-life [4, 13]: 24.8 h
concentration at 28 day ([4]; male, human, in vivo, 200 mg/day oral SDD with HPMCAS-H, Day 28, N 3, read-out: Clast): 4590 ng/mL
Clast ([4]; 200 mg/day oral SDD with HPMCAS-H, Day 1, N 4): 1,808 ng/mL
time to steady state ([4]; repeat QD dosing 200 mg/day): after day 8
TGI (Tumor Growth Inhibition) (LNCaP): 93%
TGI (Tumor Growth Inhibition) (PC-3): 0%
Serum PSA level decline ([5]; one subject, after 3 cycles (12 weeks)): > 50%
Serum PSA levels ([5]; two other subjects): showed increase
TGI (Tumor Growth Inhibition) (22Rv1): 48%
